Test results from ChEMBL document CHEMBL1201862, “PubChem BioAssay data set” (2004).
One block for each compound: values may come before it. The source made the active and inactive calls.

What was measured:
Caspase-3 = molecular target: T1, Caspase-3 (Homo sapiens, UniProt P42574); format: functional;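 note: Dose-response selectivity test against caspase-3 for candidate inhibitors of sentrin-specific proteases (SENPs)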
T1 sequence (P42574 whole entry): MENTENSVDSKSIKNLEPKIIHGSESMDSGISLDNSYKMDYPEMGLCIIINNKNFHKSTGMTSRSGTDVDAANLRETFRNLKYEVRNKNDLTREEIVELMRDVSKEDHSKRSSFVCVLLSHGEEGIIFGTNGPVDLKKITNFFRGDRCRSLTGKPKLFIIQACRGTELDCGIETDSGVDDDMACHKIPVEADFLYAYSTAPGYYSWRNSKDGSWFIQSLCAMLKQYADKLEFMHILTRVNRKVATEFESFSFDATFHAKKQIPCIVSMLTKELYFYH

[1] = molecular target: T2, Sentrin-specific protease 6 (Homo sapiens, UniProt Q9GZR1); format: functional;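 note: Luminescence-based dose-response confirmatory assay of SENP6 inhibition, following up an ultra-high-throughput screen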
T2 sequence (Q9GZR1 whole entry): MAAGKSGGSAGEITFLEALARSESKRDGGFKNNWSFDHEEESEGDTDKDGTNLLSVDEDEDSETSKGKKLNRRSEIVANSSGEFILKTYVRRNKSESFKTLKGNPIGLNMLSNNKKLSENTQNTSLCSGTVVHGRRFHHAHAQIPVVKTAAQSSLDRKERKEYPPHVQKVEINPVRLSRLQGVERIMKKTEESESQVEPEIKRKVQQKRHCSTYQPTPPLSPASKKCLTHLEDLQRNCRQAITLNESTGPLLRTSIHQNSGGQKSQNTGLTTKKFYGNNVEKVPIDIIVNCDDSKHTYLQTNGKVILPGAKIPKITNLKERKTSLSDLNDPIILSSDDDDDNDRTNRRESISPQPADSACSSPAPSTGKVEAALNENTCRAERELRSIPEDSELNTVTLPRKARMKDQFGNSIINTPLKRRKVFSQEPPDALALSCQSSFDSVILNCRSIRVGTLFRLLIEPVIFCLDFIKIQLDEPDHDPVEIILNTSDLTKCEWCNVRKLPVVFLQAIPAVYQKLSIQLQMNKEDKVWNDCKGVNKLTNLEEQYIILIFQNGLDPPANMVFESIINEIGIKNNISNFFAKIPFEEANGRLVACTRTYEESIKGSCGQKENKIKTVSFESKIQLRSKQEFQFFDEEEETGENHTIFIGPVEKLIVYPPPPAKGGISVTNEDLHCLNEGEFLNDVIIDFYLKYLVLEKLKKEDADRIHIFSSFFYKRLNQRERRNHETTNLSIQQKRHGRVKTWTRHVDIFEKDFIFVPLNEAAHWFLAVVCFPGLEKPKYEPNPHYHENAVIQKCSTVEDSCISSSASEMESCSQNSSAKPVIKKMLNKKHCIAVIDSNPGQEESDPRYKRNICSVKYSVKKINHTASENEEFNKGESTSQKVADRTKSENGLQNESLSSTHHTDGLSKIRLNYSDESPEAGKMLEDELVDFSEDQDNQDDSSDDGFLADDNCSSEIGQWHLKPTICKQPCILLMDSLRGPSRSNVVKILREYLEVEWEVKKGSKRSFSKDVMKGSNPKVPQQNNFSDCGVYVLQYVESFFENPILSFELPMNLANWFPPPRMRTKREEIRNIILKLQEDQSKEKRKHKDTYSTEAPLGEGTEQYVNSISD

[2] = molecular target: T3, Sentrin-specific protease 8 (Homo sapiens, UniProt Q96LD8); format: functional;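 note: luminescence read-out of SENP8 inhibition, dose-response confirmation following an ultra-high-throughput screen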
T3 sequence (Q96LD8 whole entry): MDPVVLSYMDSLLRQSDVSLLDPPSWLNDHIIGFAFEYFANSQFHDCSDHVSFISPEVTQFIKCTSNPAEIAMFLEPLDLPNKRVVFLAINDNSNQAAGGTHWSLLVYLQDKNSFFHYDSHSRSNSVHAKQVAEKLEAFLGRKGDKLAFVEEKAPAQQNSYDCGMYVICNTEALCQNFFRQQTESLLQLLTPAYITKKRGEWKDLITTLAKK

[3] = molecular target: T4, Sentrin-specific protease 7 (Homo sapiens, UniProt Q9BQF6); format: functional;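 note: Luminescence-based dose-response confirmation of ultra-high-throughput screening hits, measuring inhibition of SENP7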
T4 sequence (Q9BQF6 whole entry): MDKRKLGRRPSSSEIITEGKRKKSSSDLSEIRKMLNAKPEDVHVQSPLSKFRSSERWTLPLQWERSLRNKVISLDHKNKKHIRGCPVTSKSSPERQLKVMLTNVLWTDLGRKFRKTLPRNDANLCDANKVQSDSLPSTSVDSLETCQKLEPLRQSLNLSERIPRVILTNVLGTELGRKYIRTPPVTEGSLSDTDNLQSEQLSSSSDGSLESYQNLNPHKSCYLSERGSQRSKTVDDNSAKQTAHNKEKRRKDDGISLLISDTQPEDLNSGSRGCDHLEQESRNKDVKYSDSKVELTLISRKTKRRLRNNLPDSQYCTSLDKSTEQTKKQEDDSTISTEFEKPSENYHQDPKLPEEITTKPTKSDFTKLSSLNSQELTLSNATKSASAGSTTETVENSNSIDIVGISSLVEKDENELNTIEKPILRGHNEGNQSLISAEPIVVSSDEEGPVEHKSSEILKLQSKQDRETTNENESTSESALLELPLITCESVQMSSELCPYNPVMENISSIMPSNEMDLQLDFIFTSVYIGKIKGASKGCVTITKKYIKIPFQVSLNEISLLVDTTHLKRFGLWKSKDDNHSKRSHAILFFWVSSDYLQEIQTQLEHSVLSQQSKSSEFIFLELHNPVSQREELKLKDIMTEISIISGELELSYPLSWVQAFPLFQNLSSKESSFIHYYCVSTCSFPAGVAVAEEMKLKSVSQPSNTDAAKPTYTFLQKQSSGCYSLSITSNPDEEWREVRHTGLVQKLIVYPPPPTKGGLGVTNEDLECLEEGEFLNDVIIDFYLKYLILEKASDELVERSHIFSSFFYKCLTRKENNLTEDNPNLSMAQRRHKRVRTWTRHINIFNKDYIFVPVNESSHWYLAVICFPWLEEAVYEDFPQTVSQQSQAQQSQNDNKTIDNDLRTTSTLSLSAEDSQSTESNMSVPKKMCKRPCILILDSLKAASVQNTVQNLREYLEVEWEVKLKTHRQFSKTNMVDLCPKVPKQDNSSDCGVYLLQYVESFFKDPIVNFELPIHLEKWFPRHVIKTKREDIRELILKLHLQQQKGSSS

[4] = cytotoxicity in HPDE-C7 cells, cell-based, fluorescence, HTS (AID 430); format: functional; conditions: Homo sapiens
[5] = molecular target: Ras and Rab interactor 1/Tyrosine-protein kinase ABL1 (Homo sapiens, UniProt P00519+Q13671); format: functional;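 note: biochemical TR-FRET dose-response test measuring inhibition of binding between Rin1 and Abl proteins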
[6] = cytotoxicity in KRAS-transformed pancreatic duct cells, primary screen, cell-based, fluorescence, HTS (AID 431); format: functional; conditions: Homo sapiens;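 note: cell line used: HPDE-C7K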
[7] = molecular target: Peroxisome proliferator-activated receptor gamma/Nuclear receptor coactivator 2 (Homo sapiens, UniProt P37231); test: (§1) TR-FRET dose response biochemical High Throughput Screening assay for agonists of the steroid receptor coactivator 2 (SRC-2) recruitment by the peroxisome proliferator-activated receptor gamma (PPAR gamma): non-selective agonists. [Related pubchem assays: 1297, 1032 ]; format: functional
[8] = molecular target: Peroxisome proliferator-activated receptor gamma/Nuclear receptor coactivator 3 (Homo sapiens, UniProt P37231); test: as §1, with “3 (SRC-3)” for “2 (SRC-2)”, “1301 (Confirmation screen.), 1048 (Primary screen.)]” for “1297, 1032 ]”; format: functional
[9] = cytotoxicity toward NIH3T3 fibroblasts, dose response, counter-screen, cell-based, ATP luminescence, mouse fibroblasts (AID 2010); format: functional;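 note: cells exposed to compound for about 90 hours before reading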
[10] = molecular target: Peroxisome proliferator-activated receptor gamma/Nuclear receptor coactivator 1 (Homo sapiens, UniProt P37231); test: as §1, with “1 (SRC-1)” for “2 (SRC-2)”, “assays (depositor defined):AID1300, AID1808, AID504735, AID631]” for “assays: 1297, 1032 ]”; format: protein assay
[11] = inhibitors of intracellular T. cruzi replication, confirmation, NIH3T3 host cells, beta-gal luminescence (AID 2044); format: functional, cell-based;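 note: intracellular parasites grown in NIH/3T3 mouse fibroblasts as host cells; luminescent beta-galactosidase reporter signal from transgenic T. cruzi replicating inside host cells; inhibitors lower the luminescence signal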
[12] = molecular target: T5, COUP transcription factor 2 (Homo sapiens, UniProt P24468); test: Luminescence-based cell-based high throughput dose response assay to identify inhibitors of COUP-TFII (NR2F2).; format: functional;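 note: HEK293 cells transiently cotransfected with COUP-TFII expression vector and reporter; luciferase reporter luminescence driven by COUP-TFII from the pX2-168 reporter plasmid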
T5 sequence (P24468 whole entry): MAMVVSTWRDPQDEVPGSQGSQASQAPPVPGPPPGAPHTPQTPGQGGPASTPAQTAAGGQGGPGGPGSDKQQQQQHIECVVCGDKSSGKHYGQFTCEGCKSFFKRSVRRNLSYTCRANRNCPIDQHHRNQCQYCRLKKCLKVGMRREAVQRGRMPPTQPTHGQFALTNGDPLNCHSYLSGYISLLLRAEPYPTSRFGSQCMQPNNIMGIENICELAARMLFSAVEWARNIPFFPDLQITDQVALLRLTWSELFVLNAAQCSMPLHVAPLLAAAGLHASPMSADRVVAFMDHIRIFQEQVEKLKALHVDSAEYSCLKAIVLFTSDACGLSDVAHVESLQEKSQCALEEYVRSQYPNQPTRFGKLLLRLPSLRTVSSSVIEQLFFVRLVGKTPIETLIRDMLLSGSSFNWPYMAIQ

[13] = control 3'UTR Renilla luciferase suppression, dose response, counter-screen for Shn3 inhibitor project, cell-based, Clone20-Shn3RL, cherry-picked (AID 624133); format: functional
[14] = HepG2 cell cytotoxicity, dose response, cytotoxicity control for Shn3 inhibitor project, CellTiter-Glo, cherry-picked (AID 624134); format: functional, cell-based
HEK293 [15] = test: cells; format: functional, cell-based; conditions: Homo sapiens
[16] = Shn3 3'UTR reporter inhibitors, dose response, cell-based, Clone20 osteoblasts, firefly luciferase, cherry-picked (AID 624132); format: functional;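 note: firefly luciferase luminescence from reporter carrying the Shn3 3'UTR in osteoblasts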
HEK293 [17] = test: NOD1 signaling inhibitors, primary screen, cell-based, luminescence, uHTS (AID 1578); format: functional; conditions: Homo sapiens
HEK293 [18] = test: NOD2 signaling inhibitors in MDP-stimulated cells, cell-based, uHTS, luminescence (AID 2001); format: functional; conditions: Homo sapiens
HEK293 [19] = test: cells; format: functional, cell-based; conditions: Homo sapiens; remark: listed apart in the source
SN12K1 = test: cells; format: functional; conditions: Homo sapiens
P388 = test: cells; format: functional; conditions: Mus musculus
P388/ADR = test: cells; format: functional; conditions: Mus musculus

Sequence of Ras and Rab interactor 1/Tyrosine-protein kinase ABL1 (P00519 whole entry): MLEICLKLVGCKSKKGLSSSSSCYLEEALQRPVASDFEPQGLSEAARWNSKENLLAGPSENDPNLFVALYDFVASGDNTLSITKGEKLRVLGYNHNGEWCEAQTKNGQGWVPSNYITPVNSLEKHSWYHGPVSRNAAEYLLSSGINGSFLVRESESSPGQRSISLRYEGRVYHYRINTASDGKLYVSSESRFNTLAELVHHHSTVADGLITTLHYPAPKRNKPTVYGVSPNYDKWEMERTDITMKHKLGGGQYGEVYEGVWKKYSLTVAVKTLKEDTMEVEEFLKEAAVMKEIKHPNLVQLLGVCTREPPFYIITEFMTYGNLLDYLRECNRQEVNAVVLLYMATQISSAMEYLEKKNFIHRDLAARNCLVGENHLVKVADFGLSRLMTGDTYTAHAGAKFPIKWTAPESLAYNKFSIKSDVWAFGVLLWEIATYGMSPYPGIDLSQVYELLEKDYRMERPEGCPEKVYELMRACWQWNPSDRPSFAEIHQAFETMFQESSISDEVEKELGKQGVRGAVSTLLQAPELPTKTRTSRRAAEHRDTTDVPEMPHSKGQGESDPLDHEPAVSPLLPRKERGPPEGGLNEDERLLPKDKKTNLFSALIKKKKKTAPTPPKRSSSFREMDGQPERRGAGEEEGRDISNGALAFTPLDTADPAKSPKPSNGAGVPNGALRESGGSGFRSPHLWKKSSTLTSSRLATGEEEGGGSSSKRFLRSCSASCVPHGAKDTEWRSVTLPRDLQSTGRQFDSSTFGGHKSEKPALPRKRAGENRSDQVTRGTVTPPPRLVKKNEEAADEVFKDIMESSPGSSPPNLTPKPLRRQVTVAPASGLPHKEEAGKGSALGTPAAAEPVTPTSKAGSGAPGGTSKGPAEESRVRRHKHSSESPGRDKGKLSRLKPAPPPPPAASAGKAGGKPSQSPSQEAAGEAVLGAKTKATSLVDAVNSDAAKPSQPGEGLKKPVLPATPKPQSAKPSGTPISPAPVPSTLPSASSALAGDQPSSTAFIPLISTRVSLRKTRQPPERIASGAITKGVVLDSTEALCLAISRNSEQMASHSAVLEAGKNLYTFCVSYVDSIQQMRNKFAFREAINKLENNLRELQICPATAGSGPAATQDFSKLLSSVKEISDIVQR
Sequence of Ras and Rab interactor 1/Tyrosine-protein kinase ABL1 (Q13671 whole entry): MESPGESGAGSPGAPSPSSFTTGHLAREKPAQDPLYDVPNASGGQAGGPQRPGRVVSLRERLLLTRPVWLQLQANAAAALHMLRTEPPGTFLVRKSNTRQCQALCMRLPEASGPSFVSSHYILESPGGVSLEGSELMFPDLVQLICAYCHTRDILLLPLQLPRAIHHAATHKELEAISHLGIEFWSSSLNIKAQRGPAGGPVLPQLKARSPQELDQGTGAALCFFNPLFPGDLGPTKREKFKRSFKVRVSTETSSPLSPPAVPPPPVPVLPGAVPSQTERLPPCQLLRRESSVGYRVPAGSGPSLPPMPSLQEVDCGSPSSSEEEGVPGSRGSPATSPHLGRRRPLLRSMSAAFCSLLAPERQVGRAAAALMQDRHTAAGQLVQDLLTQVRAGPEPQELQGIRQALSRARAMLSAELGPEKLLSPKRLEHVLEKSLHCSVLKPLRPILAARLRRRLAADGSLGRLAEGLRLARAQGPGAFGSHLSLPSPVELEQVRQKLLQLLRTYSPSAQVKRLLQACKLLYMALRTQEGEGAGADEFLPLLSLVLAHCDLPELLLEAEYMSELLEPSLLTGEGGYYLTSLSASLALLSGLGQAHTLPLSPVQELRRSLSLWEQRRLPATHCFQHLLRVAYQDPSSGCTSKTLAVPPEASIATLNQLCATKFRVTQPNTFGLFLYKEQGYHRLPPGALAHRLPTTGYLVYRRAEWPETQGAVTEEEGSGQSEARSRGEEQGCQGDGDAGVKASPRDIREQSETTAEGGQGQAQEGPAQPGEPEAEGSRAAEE
Sequence of Peroxisome proliferator-activated receptor gamma/Nuclear receptor coactivator 3 (P37231 whole entry): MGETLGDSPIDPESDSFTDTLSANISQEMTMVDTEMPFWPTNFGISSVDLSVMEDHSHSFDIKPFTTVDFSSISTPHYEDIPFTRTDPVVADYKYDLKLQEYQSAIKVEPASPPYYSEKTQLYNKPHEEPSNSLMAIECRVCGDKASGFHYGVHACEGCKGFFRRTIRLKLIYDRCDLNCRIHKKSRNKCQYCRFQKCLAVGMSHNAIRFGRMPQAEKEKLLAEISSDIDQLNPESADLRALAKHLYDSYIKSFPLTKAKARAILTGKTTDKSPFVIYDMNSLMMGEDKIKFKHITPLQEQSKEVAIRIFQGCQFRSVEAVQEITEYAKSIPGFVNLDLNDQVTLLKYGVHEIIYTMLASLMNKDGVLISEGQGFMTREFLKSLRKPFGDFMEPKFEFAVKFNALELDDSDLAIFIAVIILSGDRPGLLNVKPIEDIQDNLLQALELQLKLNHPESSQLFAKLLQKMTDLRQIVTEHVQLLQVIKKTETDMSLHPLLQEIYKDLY
Sequence of Peroxisome proliferator-activated receptor gamma/Nuclear receptor coactivator 3 (Q9Y6Q9 whole entry, further chain): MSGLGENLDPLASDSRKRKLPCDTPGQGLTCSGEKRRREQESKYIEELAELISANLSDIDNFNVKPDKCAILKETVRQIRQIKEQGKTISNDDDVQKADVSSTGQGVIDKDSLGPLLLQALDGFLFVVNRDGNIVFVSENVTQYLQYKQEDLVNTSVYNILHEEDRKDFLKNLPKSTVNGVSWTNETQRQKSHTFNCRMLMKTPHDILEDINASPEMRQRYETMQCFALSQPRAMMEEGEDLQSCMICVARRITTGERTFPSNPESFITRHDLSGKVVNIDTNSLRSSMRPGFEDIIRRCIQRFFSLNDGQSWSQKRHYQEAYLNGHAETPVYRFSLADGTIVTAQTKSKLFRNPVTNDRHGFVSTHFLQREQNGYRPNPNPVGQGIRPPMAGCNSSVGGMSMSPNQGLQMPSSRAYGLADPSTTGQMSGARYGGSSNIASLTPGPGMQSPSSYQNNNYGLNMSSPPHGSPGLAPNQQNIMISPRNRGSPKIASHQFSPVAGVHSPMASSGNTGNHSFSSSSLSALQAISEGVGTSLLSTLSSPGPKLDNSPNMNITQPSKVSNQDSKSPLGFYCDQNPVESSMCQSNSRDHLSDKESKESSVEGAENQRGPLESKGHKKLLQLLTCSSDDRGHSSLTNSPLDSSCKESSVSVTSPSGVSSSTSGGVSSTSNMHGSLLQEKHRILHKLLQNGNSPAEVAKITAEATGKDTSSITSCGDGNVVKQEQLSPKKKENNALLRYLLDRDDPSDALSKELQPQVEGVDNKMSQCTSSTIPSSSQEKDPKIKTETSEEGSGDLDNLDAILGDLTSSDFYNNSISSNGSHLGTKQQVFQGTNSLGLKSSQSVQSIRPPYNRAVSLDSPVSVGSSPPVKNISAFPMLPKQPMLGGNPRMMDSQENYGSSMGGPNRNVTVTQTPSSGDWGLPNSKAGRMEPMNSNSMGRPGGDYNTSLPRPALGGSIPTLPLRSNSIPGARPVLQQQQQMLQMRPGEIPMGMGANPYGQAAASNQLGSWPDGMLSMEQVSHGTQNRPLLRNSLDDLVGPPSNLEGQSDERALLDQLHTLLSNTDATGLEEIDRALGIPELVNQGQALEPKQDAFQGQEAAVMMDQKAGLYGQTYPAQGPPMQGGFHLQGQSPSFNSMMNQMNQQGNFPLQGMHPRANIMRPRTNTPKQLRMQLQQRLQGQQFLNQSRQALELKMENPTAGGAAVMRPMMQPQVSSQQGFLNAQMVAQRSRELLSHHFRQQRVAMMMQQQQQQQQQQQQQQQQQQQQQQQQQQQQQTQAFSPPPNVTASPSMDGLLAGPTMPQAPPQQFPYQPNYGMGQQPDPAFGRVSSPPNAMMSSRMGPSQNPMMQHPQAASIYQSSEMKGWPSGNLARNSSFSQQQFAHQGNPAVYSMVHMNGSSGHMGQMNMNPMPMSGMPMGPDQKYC

- IC50 (Caspase-3): 29.7 µM (active)
- IC50 [1]: 33.7 µM (active)
- IC50 [3]: 6.72 µM (active)
SMILES: C[N+](=N[N-]c1cccc([N+](=O)[O-])c1)c1ccccc1
- IC50 [2]: 36 µM (active)

SMILES: Cc1nnc(SCc2nc3ccccc3[nH]2)s1
- EC50 [4]: > 20 µM (not active)
- IC50 [5]: 15.2 µM (inactive)
- EC50 [6]: > 20 µM (not active)

- IC50 [5]: 46.8 µM (inactive)
SMILES: CC[C@]12c3[nH]c4ccc(Cl)cc4c3CCN1C(=O)[C@@H](CC(=O)NCCCN(C)C)C[C@@H]2C(=O)N1CCN(C(=O)c2ccco2)CC1

- IC50 (Caspase-3): 31.1 µM (active)
- IC50 [1]: 28.5 µM (active)
- IC50 [3]: 8.46 µM (active)
SMILES: COc1ccc(-c2csc(NC(=O)c3ccco3)n2)cc1
- IC50 [2]: 41.3 µM (active)

SMILES: Cc1cc2cc(CNC(=O)c3cc4ccccc4o3)ccc2n1C
- EC50 [7]: 11.1 µM (not active)
- EC50 [8]: 19.2 µM (not active)
- EC50 [9]: > 60 µM (not active)
- EC50 [10]: 10.6 µM (inactive)
- EC50 [11]: 0.547 µM (active)

SMILES: CCN(CC)C(=O)c1oc2ccc(S(=O)(=O)N3CC(C)CC(C)C3)cc2c1C (stereo not given)
- IC50 [12]: 8.24 µM (active)
- AC50 [13]: 6.58 µM (active)
- AC50 [14]: 3.55 µM (active)
- IC50 (HEK293 [15]): 4.79 µM (active)
- AC50 [16]: 1.02 µM (active)
- EC50 (HEK293 [17]): 2.78 µM (active)
- IC50 (HEK293 [18]): 5.18 µM (active)
- IC50 (HEK293 [19]): > 20 µM (inactive)

- IC50 (Caspase-3): 26.5 µM (active)
- IC50 [1]: 9.3 µM (active)
- IC50 [3]: 5.5 µM (active)
SMILES: O=C(Nc1ccc(Cl)cc1)C1=Cc2ccccc2OC1
- IC50 [2]: 10.1 µM (active)

SMILES: CCOCCOc1ccc(OCCOCC)cc1
- GI50 (SN12K1): 15 µM (inactive)
- GI50 (P388): 3.36 µM (inactive)
- GI50 (P388/ADR): 1.45 µM (inactive)

SMILES: CSCC(CO)NC(=O)/C=C/c1c(C)[nH]c(=O)[nH]c1=O (stereo not given)
- GI50 (SN12K1): 518 µM (inactive)
- GI50 (P388): 818 µM (inactive)
- GI50 (P388/ADR): > 875 µM (inactive)
